ChEMBL document CHEMBL5236572, “Bioactive Aurones, Indanones, and Other Hemiindigoid Scaffolds: Medicinal Chemistry and Photopharmacology Perspectives” (J Med Chem, 2022)

Legend:
PMNL = experiment: Anti-inflammatory activity in human polymorphonuclear neutrophils assessed as reduction in cell movement incubated for 24 hrs by fluorescence analysis; type: functional, cell-based
[1] = target: Peroxisome proliferator-activated receptor gamma (Homo sapiens, UniProt P37231); experiment: Binding affinity to PPARgamma (unknown origin) by competitive binding assay
SH-SY5Y = experiment: Cytotoxicity against human SH-SY5Y cells assessed as reduction in cell viability by MTT assay; type: functional, cell-based
[2] = Selectivity index, ratio of CC50 for cytotoxicity against human C8166 cells to EC50 for antiviral activity against HIV-1 infected in human C8166 cells; type: toxicity, cell-based; conditions: read-out: Ratio CC50/EC50
[3] = system: Human immunodeficiency virus 1; experiment: Antiviral activity against HIV-1 infected in human C8166 cells assessed as reduction in virus-induced cytopathic effect by MTT assay; type: functional, organism-based; conditions: Human immunodeficiency virus 1, C8166
NB-4 = experiment: Cytotoxicity against human NB-4 cells assessed as reduction in cell viability by MTT assay; type: functional, cell-based
[4] = Cytotoxicity against human C8166 cells assessed as reduction in cell viability by MTT assay; type: toxicity, cell-based
Bacillus cereus = experiment: Antibacterial activity against Bacillus cereus NCIB 6349 assessed as zone of inhibition incubated for 24 hrs by agar well diffusion method; type: functional
Shigella dysenteriae = experiment: Antibacterial activity against Shigella dysenteriae clinical isolate assessed as zone of inhibition incubated for 24 hrs by agar well diffusion method; type: functional
Bacillus anthracis = experiment: Antibacterial activity against clinical isolate Bacillus anthracis assessed as zone of inhibition incubated for 24 hrs by agar well diffusion method; type: functional
Candida albicans = experiment: […] activity against Candida albicans clinical isolate assessed as zone of inhibition incubated for 24 hrs by agar well diffusion method; type: functional
Pseudomonas aeruginosa = experiment: Antibacterial activity against Pseudomonas aeruginosa NCIB 950 assessed as zone of inhibition incubated for 24 hrs by agar well diffusion method; type: functional
Pseudomonas fluorescens = experiment: Antibacterial activity against Pseudomonas fluorescens NCIB 3756 assessed as zone of inhibition incubated for 24 hrs by agar well diffusion method; type: functional
Klebsiella pneumoniae = experiment: Antibacterial activity against Klebsiella pneumoniae NCIB 418 assessed as zone of inhibition incubated for 24 hrs by agar well diffusion method; type: functional
Bacillus subtilis = experiment: Antibacterial activity against Bacillus subtilis NCIB 3610 assessed as zone of inhibition incubated for 24 hrs by agar well diffusion method; type: functional
Staphylococcus aureus = experiment: Antibacterial activity against Staphylococcus aureus NCIB 8588 assessed as zone of inhibition incubated for 24 hrs by agar well diffusion method; type: functional
Escherichia coli = experiment: Antibacterial activity against Escherichia coli NCIB 86 assessed as zone of inhibition incubated for 24 hrs by agar well diffusion method; type: functional
[5] = system: Geobacillus stearothermophilus; experiment: Antibacterial activity against Geobacillus stearothermophilus NCIB 8222 assessed as zone of inhibition incubated for 24 hrs by agar well diffusion method; type: functional
RAW264.7 = experiment: cells; conditions: Mus musculus
[6] = target: Amyloid-beta precursor protein (Homo sapiens, UniProt P05067); experiment: Binding affinity to human brain amyloid-beta fibril
THP-1 [7] = experiment: Antiinflammatory activity against human THP-1 cells assessed as inhibition of LPS-stimulated iNOS expression at 50 uM incubated for 1 hrs followed by LPS stimulation for 4 hrs by ELISA; type: functional; conditions: time 5 hrs
THP-1 [8] = experiment: Antiinflammatory activity against human THP-1 cells assessed as inhibition of LPS-stimulated TNF-alpha production at 40 uM incubated for 1 hrs followed by LPS stimulation for 4 hrs by ELISA; type: functional; conditions: time 5 hrs

Amyloid-beta precursor protein, sequence (P05067 whole entry): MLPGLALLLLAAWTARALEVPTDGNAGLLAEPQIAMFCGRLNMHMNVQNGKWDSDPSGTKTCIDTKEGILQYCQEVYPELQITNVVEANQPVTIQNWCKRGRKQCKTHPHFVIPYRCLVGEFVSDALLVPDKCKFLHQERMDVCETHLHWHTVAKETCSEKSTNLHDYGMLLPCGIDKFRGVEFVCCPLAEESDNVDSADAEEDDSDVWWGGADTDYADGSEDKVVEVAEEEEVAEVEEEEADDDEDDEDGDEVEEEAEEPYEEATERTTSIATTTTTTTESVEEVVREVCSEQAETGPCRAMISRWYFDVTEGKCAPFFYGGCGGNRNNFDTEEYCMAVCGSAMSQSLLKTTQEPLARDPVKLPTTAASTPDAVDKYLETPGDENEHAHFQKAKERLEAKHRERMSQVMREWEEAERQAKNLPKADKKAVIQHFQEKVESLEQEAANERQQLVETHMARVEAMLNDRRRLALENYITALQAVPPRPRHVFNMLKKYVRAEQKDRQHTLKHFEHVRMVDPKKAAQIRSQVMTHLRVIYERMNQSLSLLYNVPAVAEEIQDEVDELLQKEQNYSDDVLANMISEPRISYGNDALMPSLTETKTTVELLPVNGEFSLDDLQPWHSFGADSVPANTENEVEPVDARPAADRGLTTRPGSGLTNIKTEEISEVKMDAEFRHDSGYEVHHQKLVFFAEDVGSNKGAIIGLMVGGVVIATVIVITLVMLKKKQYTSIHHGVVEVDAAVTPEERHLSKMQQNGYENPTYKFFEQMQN
Peroxisome proliferator-activated receptor gamma, sequence (P37231 whole entry): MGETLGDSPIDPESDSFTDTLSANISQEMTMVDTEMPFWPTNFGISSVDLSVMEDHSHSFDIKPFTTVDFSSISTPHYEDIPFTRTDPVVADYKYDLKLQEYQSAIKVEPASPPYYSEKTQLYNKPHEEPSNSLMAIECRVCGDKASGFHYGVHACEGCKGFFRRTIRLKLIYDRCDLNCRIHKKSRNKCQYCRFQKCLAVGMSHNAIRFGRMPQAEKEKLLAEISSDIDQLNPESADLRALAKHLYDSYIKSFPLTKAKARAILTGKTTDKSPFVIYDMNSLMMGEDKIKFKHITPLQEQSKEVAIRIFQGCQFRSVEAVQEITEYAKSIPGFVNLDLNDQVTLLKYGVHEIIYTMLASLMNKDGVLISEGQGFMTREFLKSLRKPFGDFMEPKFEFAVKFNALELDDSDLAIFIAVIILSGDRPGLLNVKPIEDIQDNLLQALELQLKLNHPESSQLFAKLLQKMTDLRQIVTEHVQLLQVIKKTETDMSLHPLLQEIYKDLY

For `CCOC(OCC)c1ccc(/C=C2\Cc3ccccc3C2=O)cc1`, the IC50 (PMNL) was 7 µM.
For `COc1cc2c(cc1OC)C(=O)/C(=C/c1ccccc1OCCc1cccs1)C2`, the IC50 [1] was 0.62 µM.
`COc1cc2c(cc1O)C(=O)/C(=C/c1ccc(C(C)=O)cc1)O2` gave an IC50 (SH-SY5Y) of 3.5 µM, a selectivity ratio [2] of 82 and an IC50 [3] of 2.4 µM. For the same compound, the IC50 (NB-4) was 3.4 µM and the CC50 [4] was greater than 200 µM.
For `COc1ccc2c(c1)O/C(=C\c1cn(-c3ccccc3)nc1-c1cccs1)C2=O`, the “inhibition zone (IZ)” value (Bacillus cereus) was 13 mm, the “inhibition zone (IZ)” value (Shigella dysenteriae) was 13 mm and the “inhibition zone (IZ)” value (Bacillus anthracis) was 13 mm. The “inhibition zone (IZ)” value (Candida albicans) was 13 mm, the “inhibition zone (IZ)” value (Pseudomonas aeruginosa) was 13 mm and the “inhibition zone (IZ)” value (Pseudomonas fluorescens) was 13 mm. For the same compound, the “inhibition zone (IZ)” value (Klebsiella pneumoniae) was 13 mm, the “inhibition zone (IZ)” value (Bacillus subtilis) was 13 mm and the “inhibition zone (IZ)” value (Staphylococcus aureus) was 13 mm. The “inhibition zone (IZ)” value (Escherichia coli) was 13 mm and the “inhibition zone (IZ)” value [5] was 13 mm.
Work on `O=C1/C(=C/c2ccc(-c3ccc(CO)cc3)s2)Cc2ccccc21` yielded an IC50 (RAW264.7) of 4 µM and a Kd [6] of 0.39 µM.
With `O=C1/C(=C/c2ccc(CO)o2)Oc2ccccc21` the inhibition at 50 µM (THP-1 [7]) was 30% and the inhibition at 40 µM (THP-1 [8]) was 50%.
